Assay results published in patent US20210369677A1, “SMALL MOLECULE ACTIVATORS OF POLYCYSTIN-2 (PKD2) AND USES THEREOF” (Northwestern University, priority 2020, published 2021).

Tested on: polycystin-2L1
Assay type: cell-based
Details: for Effect of extracellular reducing agents on polycystin-2L1 current: WT polycystin-2L1
Procedure: Electrophysiology. Ciliary ion currents were recorded using borosilicate glass electrodes polished to resistances of 14-22 MΩ using the cilium patch method previously described^32. Whole cell electrodes used to measure poly cystin-2L1 currents were fire polished to 1.5-4 MΩ resistances. Unless otherwise stated, whole cilia ionic currents were recorded in symmetrical [Na^+]. The pipette standard internal solution contained (in mM): 90 NaMES, 10 NaCl, 10 HEPES, 10 Na4-BAPTA (Glycine, N, N′-[1,2-ethanediylbis(oxy-2,1-phenylene)]bis[N-(carboxymethyl)]-,tetrasodium); pH was adjusted to 7.3 using NaOH. Standard bath solution contained 140 NaCl, 10 HEPES, 1.8 CaCl2); pH 7.4. All solutions were osmotically balanced to 295 (±6) mOsm with mannitol. Extracellular solutions containing TCEP and GSH were used within six hours of formulation. Data were collected using an Axopatch 200B patch clamp amplifier, Digidata 1440A, and pClamp 10 software. Whole-cilium and excised patch currents were digitized at 25 kHz and low-pass filtered at 10 kHz. In the whole cilium configuration, the holding potential was −60 mV and then depolarized using a 400 ms voltage ramp from −100 mV to 100 mV. The whole cell recordings of polycystin-2L1 currents were either activated by the same ramp protocol or by 100 ms depolarizations to 100 mV from a −100 mV holding potential. External conditions were controlled using a Warner Perfusion Fast-Step (SF-77B) system in which the patched cilia and electrode were held in the perfusate stream. Data were analyzed by Igor Pro 7.00 (Wavemetrics, Lake Oswego, Oreg.). The polycystin-2 open probability and the polycystin-2L1 tail current-voltage relationships were fit to a Boltzmann function, f(x)=1/(1+exp[V−V1/2]/k) to estimate voltage of half-maximal activation of current (V1/2).

| Compound | Effect of extracellular reducing agents on polycystin-2L1 current | Block of polycystin-2L1 currents by trivalent ions (10 μM, plasma membrane of HEK cells) |
| --- | --- | --- |
| O=C(O)CCP(CCC(=O)O)CCC(=O)O [TCEP, tris-2-carboxyethyl phosphine] | near complete loss of current | – |
| N[C@@H](CCC(=O)N[C@@H](CS)C(=O)NCC(=O)O)C(=O)O [GSH, reduced glutathione] | near complete loss of current | – |
| [Gd] [gadolinium] | – | blocked |
